The values that follow come from patent publication US9200001B2, “Triazolyl PDE10 inhibitors” (Merck Sharp & Dohme Corp., priority 2011, dated 2015).

Series [1] concerns the target human PDE10A2 (Homo sapiens (Human), UniProt Q9Y233). Kind of series: PDE10 fluorescence polarization (IMAP FP) inhibition assay. It is filed as biochemical. The conditions noted are these: FAM-labeled cAMP 50 nM, room temperature, read-out: PDE10a Ki. The method in brief:
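Cytoplasmic lysate of AD293 cells transiently expressing human PDE10A2, incubated 30 minutes at room temperature with 50 nM FAM-labeled cAMP in Tris pH 7.2 with MgCl2. Read by IMAP fluorescence polarization; 0% inhibition set by 1% DMSO, 100% by a reference PDE10 inhibitor.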
On the technique in general: In fluorescence polarisation assays a small probe gives low polarisation when free and higher when bound to something large.

human PDE10A2, sequence (Q9Y233 267-1055): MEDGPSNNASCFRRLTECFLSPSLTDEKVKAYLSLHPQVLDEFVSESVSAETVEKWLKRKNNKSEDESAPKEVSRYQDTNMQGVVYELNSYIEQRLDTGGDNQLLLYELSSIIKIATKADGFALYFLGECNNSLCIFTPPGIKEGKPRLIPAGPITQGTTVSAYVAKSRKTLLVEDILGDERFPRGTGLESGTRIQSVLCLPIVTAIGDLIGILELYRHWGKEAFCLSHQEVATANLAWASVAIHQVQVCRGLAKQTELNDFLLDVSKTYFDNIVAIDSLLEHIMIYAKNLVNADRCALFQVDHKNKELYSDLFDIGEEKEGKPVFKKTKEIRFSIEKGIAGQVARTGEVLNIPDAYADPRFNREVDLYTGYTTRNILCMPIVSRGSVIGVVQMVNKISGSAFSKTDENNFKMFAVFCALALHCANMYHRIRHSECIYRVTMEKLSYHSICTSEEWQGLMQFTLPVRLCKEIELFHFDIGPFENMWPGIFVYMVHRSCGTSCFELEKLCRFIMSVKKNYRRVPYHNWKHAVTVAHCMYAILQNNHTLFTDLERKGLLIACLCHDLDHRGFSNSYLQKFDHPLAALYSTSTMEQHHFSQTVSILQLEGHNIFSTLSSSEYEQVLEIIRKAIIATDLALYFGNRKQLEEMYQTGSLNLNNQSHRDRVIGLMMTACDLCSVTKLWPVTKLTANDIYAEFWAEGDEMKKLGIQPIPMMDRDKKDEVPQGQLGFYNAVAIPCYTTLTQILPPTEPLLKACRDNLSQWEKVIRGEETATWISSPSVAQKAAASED

Consider `CCOc1nc([C@@H]2C[C@H]2c2nc3ccccc3n2C)cc(-n2nc(C)nc2C)n1` (relative stereo) [Example 14, trans-2-(2-(6-(3,5-dimethyl-1H-1,2,4-triazol-1-yl)-2-ethoxypyrimidin-4-yl)cyclopropyl)-1-methyl-1H-benzo[d]imidazole], for which the melting point (usually the temperature of the solid-liquid transition) is 82 to 83 °C. `Cc1nc(C)n(-c2cc([C@H]3C[C@@H]3c3nc4ccccc4n3C)nc(C(N)=O)n2)n1` (relative stereo) [Cpd 130, trans-4-(3,5-dimethyl-1H-1,2,4-triazol-1-yl)-6-[2-(1-methyl-1H-benzimidazol-2-yl)cyclopropyl]pyrimidine-2-carboxamide] showed a melting point of 119 to 121 °C. Besides, in series [1], the Ki (in general, the dissociation constant of the complex between target and ligand, obtained from inhibition or displacement) is 1.6 nM. With `CNc1nc([C@H]2C[C@@H]2c2nc3ccccc3n2C)cc(-n2nc(C)nc2C)n1` (relative stereo) [Example 3, trans-4-(3,5-dimethyl-1H-1,2,4-triazol-1-yl)-N-methyl-6-(2-(1-methyl-1H-benzo[d]imidazol-2-yl)cyclopropyl)pyrimidin-2-amine], the melting point is 212 to 214 °C. On to `Cc1nc(C)n(-c2cc([C@H]3C[C@@H]3c3nc4ccccc4n3C)nc(N3CCCC3)n2)n1` (relative stereo) [Cpd 116, trans-2-{2-[6-(3,5-dimethyl-1H-1,2,4-triazol-1-yl)-2-pyrrolidin-1-ylpyrimidin-4-yl]cyclopropyl}-1-methyl-1H-benzimidazole], for which the melting point lay within 180 to 185 °C. The Ki in series [1] amounted to 1.2 nM. `Cc1nc(C)n(-c2cc([C@@H]3C[C@H]3c3nc4ccccc4n3C)nc(C#N)n2)n1` (relative stereo) [Example 21, trans-4-(3,5-dimethyl-1H-1,2,4-triazol-1-yl)-6-(2-(1-methyl-1H-benzo[d]imidazol-2-yl)cyclopropyl)pyrimidine-2-carbonitrile] yielded a melting point of 229 to 231 °C. In the case of `Cc1nc(C)n(-c2cc([C@H]3C[C@@H]3c3nc4ccccc4n3C)nc(OCC(F)(F)F)n2)n1` (relative stereo) [Cpd 124, trans-2-{2-[6-(3,5-dimethyl-1H-1,2,4-triazol-1-yl)-2-(2,2,2-trifluoroethoxy)pyrimidin-4-yl]cyclopropyl}-1-methyl-1H-benzimidazole], the Ki in series [1] was determined as 1.5 nM. In the case of `Cc1nc([C@@H]2C[C@H]2c2nc3ccc(F)cc3[nH]2)cc(-n2nc(C)nc2C)n1` [Cpd 68, 2-{(1R,2R)-2-[6-(3,5-dimethyl-1H-1,2,4-triazol-1-yl)-2-methylpyrimidin-4-yl]cyclopropyl}-6-fluoro-1H-benzimidazole], in series [1], the Ki turned out to be 9.2 nM.

`Cc1nc(C2CC2c2nc3ccccc3[nH]2)cc(-n2nc(C)nc2C)n1` (stereo not shown) [Cpd 41, 2-(2-(6-(3,5-dimethyl-1H-1,2,4-triazol-1-yl)-2-methylpyrimidin-4-yl)cyclopropyl)-1H-benzo[d]imidazole]: the Ki in series [1] came out at 6.8 nM. Still for that read-out and setting: then `Cc1nc([C@H]2C[C@@H]2c2nc3ncccc3n2C)cc(-n2nc(C)nc2C)n1` (stereo in doubt) [Cpd 80, 2-{2-[6-(3,5-dimethyl-1H-1,2,4-triazol-1-yl)-2-methylpyrimidin-4-yl]cyclopropyl}-1-methyl-1H-imidazo[4,5-b]pyridine], with > 75 nM. Molecule `Cc1nc(C)n(-c2cc([C@H]3C[C@@H]3c3nc4ccccc4n3C)nc(N3CCOCC3)n2)n1` (relative stereo) [Cpd 117, trans-2-{2-[6-(3,5-dimethyl-1H-1,2,4-triazol-1-yl)-2-morpholin-4-ylpyrimidin-4-yl]cyclopropyl}-1-methyl-1H-benzimidazole] showed a melting point of 226 to 228 °C. For `COc1ccc(Cc2nc(C)nn2-c2cc([C@@H]3C[C@H]3c3nc4ccccc4[nH]3)nc(C)n2)cc1OC` [Cpd 26, 2-((1R,2R)-2-(6-(5-(3,4-dimethoxybenzyl)-3-methyl-1H-1,2,4-triazol-1-yl)-2-methylpyrimidin-4-yl)cyclopropyl)-1H-benzo[d]imidazole], the Ki in series [1] worked out at 0.005 nM.

For `Cc1nc([C@@H]2C[C@H]2c2nc3ccccc3n2C)cc(-n2nc(C)nc2C2CCN(C)CC2)n1` [Cpd 96, 1-methyl-2-[(1R,2R)-2-{2-methyl-6-[3-methyl-5-(1-methylpiperidin-4-yl)-1H-1,2,4-triazol-1-yl]pyrimidin-4-yl}cyclopropyl]-1H-benzimidazole], in series [1], the Ki turned out to be 3.9 nM. Turning to `Cc1nc(C2CC2c2nc3ccccc3n2Cc2ccccc2)cc(-n2nc(C)nc2C)n1` (stereo not shown) [Cpd 52, 1-benzyl-2-(2-(6-(3,5-dimethyl-1H-1,2,4-triazol-1-yl)-2-methylpyrimidin-4-yl)cyclopropyl)-1H-benzo[d]imidazole], the inhibition constant (Ki) in series [1] came to 13.4 nM.

Regarding `COC[C@@H](C)Oc1nc([C@@H]2C[C@H]2c2nc3ccccc3n2C)cc(-n2nc(C)nc2C)n1` [Cpd 66, 2-[(1R,2R)-2-{6-(3,5-dimethyl-1H-1,2,4-triazol-1-yl)-2-[(1R)-2-methoxy-1-methylethoxy]pyrimidin-4-yl}cyclopropyl]-1-methyl-1H-benzimidazole], the Ki in series [1] stood at 0.63 nM. Still for that read-out and setting: then `Cc1ccc(C2CC2c2cc(-n3nc(C)nc3Cc3ccccc3)nc(C)n2)nc1` (stereo not shown) [Cpd 49, 4-(5-benzyl-3-methyl-1H-1,2,4-tiazol-1-yl)-2-methyl-6-(2-(5-methylpyridin-2-yl)cyclopropyl)pyrimidine], with 0.21 nM.

For `Cc1nc(C2CC2c2nc3ccc(OC(F)F)cc3[nH]2)cc(-n2nc(C)nc2C)n1` (stereo not shown) [Cpd 60, 6-(difluoromethoxy)-2-(2-(6-(3,5-dimethyl-1H-1,2,4-triazol-1-yl)-2-methylpyrimidin-4-yl)cyclopropyl)-1H-benzo[d]imidazole], the Ki in series [1] was 58.2 nM. On to `Cc1nc([C@@H]2C[C@H]2c2nc3ccccc3n2C)cc(-n2nc(Br)nc2C)n1` [Cpd 88, 2-{(1R,2R)-2-[6-(3-bromo-5-methyl-1H-1,2,4-triazol-1-yl)-2-methylpyrimidin-4-yl]cyclopropyl}-1-methyl-1H-benzimidazole], for which the Ki in series [1] amounted to 2 nM. As to `Cc1nc([C@H]2C[C@@H]2c2nnc(-c3ccn(C)n3)s2)cc(-n2nc(C)nc2C)n1` [Cpd 105, 4-(3,5-dimethyl-1H-1,2,4-triazol-1-yl)-2-methyl-6-{(1S,2S)-2-[5-(1-methyl-1H-pyrazol-3-yl)-1,3,4-thiadiazol-2-yl]cyclopropyl}pyrimidine], the Ki in series [1] is > 75 nM.

As to `Cc1nc([C@@H]2C[C@H]2c2nc3ccccc3n2CC2CCCO2)cc(-n2nc(C)nc2C)n1` (stereo in doubt) [Cpd 75, 2-{2-[6-(3,5-dimethyl-1H-1,2,4-triazol-1-yl)-2-methylpyrimidin-4-yl]cyclopropyl}-1-(tetrahydrofuran-2-ylmethyl)-1H-benzimidazole], the Ki in series [1] amounted to 13 nM.

Take `Cc1nc(C2CC2c2nc3ccccc3n2C)cc(-n2nc(C)nc2C)n1` (stereo not shown) [Cpd 36, 2-(2-(6-(3,5-dimethyl-1H-1,2,4-triazol-1-yl)-2-methylpyrimidin-4-yl)cyclopropyl)-1-methyl-1H-benzo[d]imidazole]: the Ki in series [1] stood at 3.5 nM. With `COc1ccc(Cc2nc(C)nn2-c2cc(C3CC3c3nc4ccccc4[nH]3)nc(C)n2)cc1OC` (stereo not shown) [Cpd 38, 2-(2-(6-(5-(3,4-dimethoxybenzyl)-3-methyl-1H-1,2,4-triazol-1-yl)-2-methylpyrimidin-4-yl)cyclopropyl)-1H-benzo[d]imidazole], the Ki in series [1] stood at 0.005 nM. On the same count and under the same terms, next, `COc1ccc(Cc2nc(C)nn2-c2cc([C@H]3C[C@@H]3c3nc4ccccc4[nH]3)nc(C)n2)cc1OC` [Cpd 25, 2-((1S,2S)-2-(6-(5-(3,4-dimethoxybenzyl)-3-methyl-1H-1,2,4-triazol-1-yl)-2-methylpyrimidin-4-yl)cyclopropyl)-1H-benzo[d]imidazole]: 0.027 nM. Take `CNc1nc([C@@H]2C[C@H]2c2nc3ccccc3n2C)cc(-n2nc(C)nc2C)n1` [Cpd 62, 4-(3,5-dimethyl-1H-1,2,4-triazol-1-yl)-N-methyl-6-[(1R,2R)-2-(1-methyl-1H-benzimidazol-2-yl)cyclopropyl]pyrimidin-2-amine]: the Ki in series [1] turned out to be 0.77 nM. As for `Cc1nc(C2CC2c2nc3ccc(Cl)cc3[nH]2)cc(-n2nc(C)nc2C)n1` (stereo not shown) [Cpd 57, 6-chloro-2-(2-(6-(3,5-dimethyl-1H-1,2,4-triazol-1-yl)-2-methylpyrimidin-4-yl)cyclopropyl)-1H-benzo[d]imidazole], the inhibition constant (Ki) in series [1] worked out at 30.7 nM. As for `Cc1nc([C@H]2C[C@@H]2c2nc3ccccc3n2C)cc(-n2nc(C)nc2C2CCN(C(=O)OC(C)(C)C)CC2)n1` (stereo in doubt) [Cpd 84, tert-butyl 4-(3-methyl-1-{2-methyl-6-[2-(1-methyl-1H-benzimidazol-2-yl)cyclopropyl]pyrimidin-4-yl}-1H-1,2,4-triazol-5-yl)piperidine-1-carboxylate], in series [1], the Ki was > 75 nM.

In the case of `Cc1nc(C2CC2c2nc3ccccc3n2C)cc(-n2nc(C)nc2C(C)C)n1` (stereo not shown) [Cpd 56, 2-(2-(6-(5-isopropyl-3-methyl-1H-1,2,4-triazol-1-yl)-2-methylpyrimidin-4-yl)cyclopropyl)-1-methyl-1H-benzo[d]imidazole], the Ki in series [1] amounted to 1.7 nM.

On to `COc1ccc(Cc2nc(C)nn2-c2cc(CCc3ccc4ncccc4n3)nc(C)n2)cc1OC` [Cpd 16, 2-(2-(6-(5-(3,4-dimethoxybenzyl)-3-methyl-1H-1,2,4-triazol-1-yl)-2-methylpyrimidin-4-yl)ethyl)-1,5-naphthyridine], for which, in series [1], the Ki amounted to 0.027 nM. `COc1nc([C@H]2C[C@@H]2c2nc3ccccc3n2C)cc(-n2nc(C)nc2C)n1` (relative stereo) [Cpd 111, trans-2-{2-[6-(3,5-dimethyl-1H-1,2,4-triazol-1-yl)-2-methoxypyrimidin-4-yl]cyclopropyl}-1-methyl-1H-benzimidazole]: in series [1], the Ki stood at 1.3 nM. As for `Cc1nc([C@@H]2C[C@H]2c2nc3ccccc3n2Cc2ccncc2)cc(-n2nc(C)nc2C)n1` (stereo in doubt) [Cpd 76, 2-{2-[6-(3,5-dimethyl-1H-1,2,4-triazol-1-yl)-2-methylpyrimidin-4-yl]cyclopropyl}-1-(pyridin-4-ylmethyl)-1H-benzimidazole], in series [1], the inhibition constant (Ki) amounted to 18.3 nM.
